According to US10675266B2, “Compounds and methods for treating autism spectrum disorders” (BIOCODEX, priority 2008, dated 2020):

Legend:
animal models = settings: several animal models; cited from earlier work
[1] = tested on: recombinant GABA-A receptors; settings: cited from earlier work
BALB/c mice = assay: Social investigatory behaviour of BALB/c test mice towards a juvenile DBA/2J stimulus mouse; type: in vivo; settings: for duration of social contacts: 100, 200 and 300 mg/kg i.p. once daily for 5 days
Description: (§1) The purpose of this study was to examine the effects of stiripentol on the social behavioural in BALB/c mice compared to C57BL/6J (C57) inbred mice. The social investigatory behaviour of mice was measured by the amount of time that the “test” mouse (BALB/c and C57 mice) engaged in social contact with the “stimulus” mouse (juvenile DBA/2J mice strain).
(§2) All male mice (BALB/c, C57 and DBA/2J) were purchased from the Charles River breeding (Les Oncins-France). BALB/c and C57 mice were 8 weeks of age upon arrival at the laboratory. They were housed in temperature-controlled rooms (22±2° C.), separately by strain, with 5 mice per polycarbonate cage (type “S” cage: 265 mm L×160 mm W×140 mm H) and provided with food (A04-SAFE, France) and tap water ad libitum. Behavioral testing was conducted during the light period of a 12-h light:12-h dark cycle (lights on at 7 a.m.). The mice were used for behavioural testing starting 5-7 days after arrival at the laboratory whereas juvenile DBA/2J mice were used at 3-weeks of age and arrived at the laboratory 5 days prior testing. The experiments were conducted in accordance with the European Recommendations (directive 86/609/ECC) for the care and use of laboratory animals.
(§3) The general procedure was conducted according to the protocol described by Fishkin and Winslow (1997) Psychopharmacology (Berl) 132:335-341 with slight modifications.
Twenty-four hours prior to testing, BALB/c and C57 mice were individually housed in clear cage (type “S” cage). Food and water remained freely available. Individual housing was provided firstly to permit resident male mice an opportunity to scent mark and habituate to their home cage and, secondly to heighten the motivation of “test” mice for social interaction. All the animals were allowed to acclimate to the test room (natural lighting) for at least 1 h prior to testing which was conducted between 9 a.m. and 3 p.m.
The juvenile DBA/2J mouse was placed into BALB/c or C57 mouse cage for a 10-min observation period. The DBA/2J mouse served as “stimulus” mouse for one BALB/c mouse and one C57BL mouse. For each contact, an observer, sitting about 1 m from the cage; recorded the latency to the first contact (or approach) (in sec) towards the “stimulus” mouse and the time (in sec) that the “test” mouse spent in social investigatory behaviour. Nosing, sniffing, pawing, grooming and close following of the “stimulus” mouse by the young adult mouse were considered to be signs of social investigation. […]
(§4) All data represent the mean±standard error of mean (S.E.M.). Treatment effects on mean latency to the first contact and on mean duration of social investigation were analyzed with two-way analysis of variance (ANOVA) with the strain and the treatment as factors. […]

SMEI patients = settings: cited from earlier work
C57 mice = assay: Social investigatory behaviour of C57 test mice towards a juvenile DBA/2J stimulus mouse; type: in vivo
Description: as §1, §2, §3
Twenty-four hours prior to testing, BALB/c and C57 mice were individually housed in clear cage (type “S” cage). […]
The juvenile DBA/2J mouse was placed into BALB/c or C57 mouse cage for a 10-min observation period. […] For each contact, an observer, sitting about 1 m from the cage; recorded the latency to the first contact (or approach) (in sec) towards the “stimulus” mouse and the time (in sec) that the “test” mouse spent in social investigatory behaviour. […]
as §4

[2] = doses 100, 200 and 300 mg/kg i.p.; from literature (Gasior 1999; Vincent 1991); cited from earlier work
patients = assay: Observation of autism symptoms in patients after initiation of treatment; type: in vivo, human
Excerpt: This observation can be confirmed by studies in animal models that mimic characteristic features of autism such as the models described by Moy S S et al, Behav. Brain Res. 176:4, 2007 and McFarlane H G et al, Genes, Brain and Behavior, 1601:1, 2007.

**Q.** With CC(C)(C)C(O)/C=C/c1ccc2c(c1)OCO2 (racemic) [Stiripentol, 1-penten-3-ol, 1-(1,3-benzodioxol)-4,4-dimethyl] as the compound, how does the anticonvulsant activity (animal models) read?
**A.** The anticonvulsant activity was “has shown anticonvulsant activity”.

**Q.** And the “modulation of the GABA receptor” value ([1]; Fisher, Neuropharmacology 2009)?
**A.** The value was “positive allosteric modulator”.

**Q.** And the “potentiation by subunit subtype” value ([1]; alpha subunit subtypes compared)?
**A.** The value was “alpha 3 subtype showed the greatest potentiation”.

**Q.** What about the “latency to the first contact” value (BALB/c mice; 100, 200, 300 mg/kg i.p. once daily for 5 days, last dose 60 min before testing, FIG. 1) of the same compound?
**A.** The value was “trend for decrease”.

**Q.** What about the “duration of social contacts” value (BALB/c mice; FIG. 2) of the same compound?
**A.** Its value is “increased duration of social contacts”.

**Q.** What about the “duration of social contacts” value (BALB/c mice; FIG. 2, listed as stiripentol) of the same compound?
**A.** The value was “significantly increased”.

**Q.** And the sociability (BALB/c mice; sub-chronic treatment 100, 200 or 300 mg/kg i.p. x 5 days)?
**A.** Its sociability is “enhanced the sociability”.

**Q.** What about the response rate (SMEI patients; SMEI patients, 50 mg/kg/day) of the same compound?
**A.** Its response rate is “high response rate”.

**Q.** What about the “efficacy in double blind controlled clinical trials” value (SMEI patients; two double blind controlled clinical trials (Chiron, Lancet 2000)) of the same compound?
**A.** The value was “high efficacy”.

**Q.** And the sedative effects (C57 mice; 300 mg/kg i.p. once daily for 5 days)?
**A.** Its sedative effects is “sedative effects in C57 mice began to appear”.

**Q.** And the “duration of social contacts” value (C57 mice; 300 mg/kg i.p. once daily for 5 days, FIG. 2)?
**A.** The value was “significantly lowered”.

**Q.** And the “latency to the first contact” value (C57 mice; up to 300 mg/kg i.p. once daily for 5 days, FIG. 1)?
**A.** The value was “without effects”.

**Q.** What about the adverse motor effects [2] of the same compound?
**A.** The adverse motor effects was “devoid of any adverse motor effects”.

**Q.** And the autism symptoms (patients)?
**A.** The autism symptoms was “resolution of autism symptoms”.
